The data set can be described thus: Dissolution rate test of Apixaban/carboxylic acid co-crystal (paddle method, Chinese Pharmacopoeia guidelines; equilibrium solubility in dissolution medium). It counts as physicochemical. Particulars: relative to Apixaban; dissolution medium 0.1mol/L hydrochloric acid, 37±0.5°C, paddle method 100rpm, 900ml, 500 mg sample powder. The protocol:
Test Example 1: Dissolution rate test of Apixaban/carboxylic acid co-crystal
According to the dissolution rate test guidelines in the current Chinese Pharmacopoeia, a dissolution rate experiment was designed to respectively investigate the dissolution rates of the five Apixaban/carboxylic acid co-crystals prepared by the present invention. The specific scheme is as follows:
Table 6 Dissolution equipment and parameters
0.1mol/L hydrochloric acid solution: 9ml of hydrochloric acid was added into 1000ml of water and stirred well.
After the dissolution conditions were reached, 500 mg of sample powder were weighed and put into a dissolution cup, rotated, and immediately counted the time, after 1, 2, 3, 4, 6, 8, 10, 12, 14, 16, 18, 20, 22 and 24 hours, sampled with a sampling needle equipped with a 10µm polymeric polyethylene filter membrane, and filtered on-line through a 0.45µm polyvinylidene fluoride (PVDF) filter membrane.

From patent EP3932918A1, “EUTECTIC CRYSTAL FORMED BY APIXABAN AND CARBOXYLIC ACID, AND PREPARATION METHOD THEREFOR” (Zhejiang Tianyu Pharmaceutical Co., Ltd., priority 2019, dated 2021) come the findings set out here.

As for “Apixaban/malonic acid co-crystal [crystal form I]”, the “dissolution rate (times that of Apixaban)” value is on record as 1.4 times.

Regarding “Apixaban/D-malic acid co-crystal [crystal form II]”, the “dissolution rate (times that of Apixaban)” value was 1.44 times.
